Row | SMILES | logP
1 | CCNc1nc(Cl)nc(NCC2CC2)n1 | 2.85
2 | CCCC(C)C(=O)Nc1ccc(C)c(Cl)c1 (centres undefined) | 4.31
3 | CN(C)C(=O)Nc1cccc(Cc2ccccc2)c1 | 2.83
4 | CC(C)CNC(=O)Nc1ccc(Cl)c(Cl)c1 | 4.48
5 | O=C(Cc1ccccc1)Nc1cccc(Cl)c1 | 3.61
6 | CCCC(C)(C)C(=O)Nc1ccc(Cl)cc1 | 3.83
7 | CC1(NC(=O)Nc2ccccc2)CCCCC1 | 3.6

Continued, values first:

Row | logP | SMILES
8 | 2.77 | CCNc1nc(Cl)nc(NC2CCC2)n1
9 | 3.49 | C=CC(C)C(=O)Nc1ccc(Cl)cc1Cl (centres undefined)
10 | 3.63 | CCNc1nc(Cl)nc(NC2CCCCC2)n1
11 | 4.74 | CCCCCC(C)Nc1nc(Cl)nc(NCC)n1 (centres undefined)
12 | 2.55 | CCCc1ccc(NC(=O)N(C)C)cc1
13 | 1.26 | CNC(=O)Nc1cccc(OC)c1
14 | 2.75 | C=CCNc1nc(Cl)nc(NCC=C)n1

From the OPERA property sets (Mansouri et al. 2018)
